What was measured:
[1] = Mouse microsomal stability; format: in vitro ADME; details: mouse liver microsomes; read-out: MLM t1/2
Experimental: ADMET experimental methods […]
Mouse Microsomal stability: analysis was performed by Cyprotex Discovery. Briefly, test compounds in DMSO were incubated at a concentration of 1 µM (0.25% DMSO final) with mouse hepatic microsomes (0.5 mg protein/mL) in the presence of NADPH (1 mM) at 37 °C. Aliquots were taken at time intervals (0, 5, 15, 30 and 45 min) and stopped by transferring into acetonitrile, then analysed using generic LC-MS/MS conditions for compound remaining, allowing the determination of the half-life for the compound.

140 protein kinases = details: 1 μM
MDR1 (P-gp) = experiment: MDR1-MDCK permeability (bi-directional); format: in vitro ADME; details: dog, MDCK-MDR1 cells
Experimental: ADMET experimental methods
MDR1-MDCK Permeability (bi-directional): was performed by Cyprotex Discovery. Briefly, compounds were administered at 10 µM (1% DMSO final) to the apical or basolateral side of a confluent monolayer of MDR1 - MDCK cells, then incubated a t 37 °C for 60 minutes before appearance on the opposite side of the monolayer was determined LC-MS/MS. The efflux ratio (ER) is calculated from the ratio of B -A to A-B permeabilities. […]

PIP5K2A (PI5P4Kα) = PIP5K2A (PI5P4Kα) (Homo sapiens, UniProt P48426); experiment: Lipid kinase panel (MRC PPU); format: biochemical; details: read-out: residual activity (%)
PIP5K2A (PI5P4Kα), sequence (P48426 whole entry): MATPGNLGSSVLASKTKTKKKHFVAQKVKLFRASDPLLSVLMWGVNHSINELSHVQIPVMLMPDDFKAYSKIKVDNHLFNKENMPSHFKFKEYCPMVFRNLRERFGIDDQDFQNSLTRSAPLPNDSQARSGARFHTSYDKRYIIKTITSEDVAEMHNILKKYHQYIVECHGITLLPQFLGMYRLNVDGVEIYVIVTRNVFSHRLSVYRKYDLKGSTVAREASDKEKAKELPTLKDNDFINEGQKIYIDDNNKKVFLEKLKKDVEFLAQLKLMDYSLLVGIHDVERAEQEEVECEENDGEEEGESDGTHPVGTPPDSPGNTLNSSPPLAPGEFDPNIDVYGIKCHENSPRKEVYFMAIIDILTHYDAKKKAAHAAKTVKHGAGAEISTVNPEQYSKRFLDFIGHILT

ABL = ABL (Homo sapiens, UniProt P00519); experiment: Premier Screen kinase panel (MRC PPU); format: biochemical; details: ABL (Entrez ABL1), read-out: Residual activity (%)
Experimental: (§1) room temperature with shaking for 30 minutes. The kinase concentration in the eluates was measured by qPCR.
(§2) using ADP-GloTM assay at the MRC PPU International Centre for Kinase Profiling, University of Dundee.
(§3) Conducted by MRC PPU International Centre
(§4) Conducted by MRC PPU International Centre for […]

MPSK1 = MPSK1 (Homo sapiens, UniProt O75716); experiment: Premier Screen kinase panel (MRC PPU); format: biochemical; details: MPSK1 (Entrez STK16), read-out: Residual activity (%)
MPSK1, sequence (O75716 whole entry): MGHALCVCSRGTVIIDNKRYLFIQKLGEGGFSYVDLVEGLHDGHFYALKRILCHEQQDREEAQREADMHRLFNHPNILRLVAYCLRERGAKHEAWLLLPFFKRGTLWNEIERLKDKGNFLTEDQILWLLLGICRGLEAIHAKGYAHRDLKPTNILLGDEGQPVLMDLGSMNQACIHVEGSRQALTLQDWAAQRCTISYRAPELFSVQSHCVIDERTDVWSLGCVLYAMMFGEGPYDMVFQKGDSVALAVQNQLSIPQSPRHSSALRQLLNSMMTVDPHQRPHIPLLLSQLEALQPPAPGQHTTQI
Experimental: as §1, §2, §3, §4

TAO1 = TAO1 (Homo sapiens, UniProt Q7L7X3); experiment: Premier Screen kinase panel (MRC PPU); format: biochemical; details: TAO1 (Entrez TAOK1), read-out: Residual activity (%)
Experimental: as §1, §2, §3, §4

LKB1 = LKB1 (Homo sapiens, UniProt Q15831); experiment: Premier Screen kinase panel (MRC PPU); format: biochemical; details: LKB1 (Entrez STK11), read-out: Residual activity (%)
LKB1, sequence (Q15831 whole entry): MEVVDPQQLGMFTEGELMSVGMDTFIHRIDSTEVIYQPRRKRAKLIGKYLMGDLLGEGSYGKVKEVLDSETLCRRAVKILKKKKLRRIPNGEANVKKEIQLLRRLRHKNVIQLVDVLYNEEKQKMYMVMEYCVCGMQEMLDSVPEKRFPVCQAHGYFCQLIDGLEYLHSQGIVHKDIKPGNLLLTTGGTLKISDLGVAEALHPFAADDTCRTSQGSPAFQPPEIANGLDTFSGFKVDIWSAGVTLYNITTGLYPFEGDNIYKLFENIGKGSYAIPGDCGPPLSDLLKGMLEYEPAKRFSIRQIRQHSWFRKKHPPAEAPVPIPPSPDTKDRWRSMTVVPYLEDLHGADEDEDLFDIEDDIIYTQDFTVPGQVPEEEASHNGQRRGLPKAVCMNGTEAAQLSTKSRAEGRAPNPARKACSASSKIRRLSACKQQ
LKB1, sequence (Q7RTN6 whole entry partner): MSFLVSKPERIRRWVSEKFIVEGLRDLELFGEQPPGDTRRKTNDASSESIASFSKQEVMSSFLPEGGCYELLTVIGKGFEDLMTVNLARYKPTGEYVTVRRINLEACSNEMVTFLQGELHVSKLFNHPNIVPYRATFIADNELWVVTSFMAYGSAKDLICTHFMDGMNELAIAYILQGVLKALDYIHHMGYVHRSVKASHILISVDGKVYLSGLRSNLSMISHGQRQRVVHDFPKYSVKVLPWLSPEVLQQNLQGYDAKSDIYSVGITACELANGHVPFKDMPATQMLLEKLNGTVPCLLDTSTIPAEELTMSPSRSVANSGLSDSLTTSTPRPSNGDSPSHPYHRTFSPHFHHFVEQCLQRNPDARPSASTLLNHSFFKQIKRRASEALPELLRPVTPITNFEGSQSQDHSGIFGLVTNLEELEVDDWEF
LKB1, sequence (Q9Y376 whole entry partner): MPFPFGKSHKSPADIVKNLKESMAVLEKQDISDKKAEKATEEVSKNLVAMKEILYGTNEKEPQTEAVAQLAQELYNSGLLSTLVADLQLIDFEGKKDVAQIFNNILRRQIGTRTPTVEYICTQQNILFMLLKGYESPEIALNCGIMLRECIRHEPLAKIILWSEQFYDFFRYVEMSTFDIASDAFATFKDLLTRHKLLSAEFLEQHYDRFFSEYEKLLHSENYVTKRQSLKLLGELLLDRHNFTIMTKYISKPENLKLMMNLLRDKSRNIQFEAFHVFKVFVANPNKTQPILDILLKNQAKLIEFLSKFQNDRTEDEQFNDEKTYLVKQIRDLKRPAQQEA
Experimental: as §1, §2, §3, §4

PLK1 = PLK1 (Homo sapiens, UniProt P53350); experiment: Premier Screen kinase panel (MRC PPU); format: biochemical; details: PLK1 (Entrez PLK1), read-out: Residual activity (%)
Experimental: as §1, §2, §3, §4

Lck = Lck (Homo sapiens, UniProt P06239); experiment: Premier Screen kinase panel (MRC PPU); format: biochemical; details: Lck (Entrez LCK), read-out: Residual activity (%)
Lck, sequence (P06239 whole entry): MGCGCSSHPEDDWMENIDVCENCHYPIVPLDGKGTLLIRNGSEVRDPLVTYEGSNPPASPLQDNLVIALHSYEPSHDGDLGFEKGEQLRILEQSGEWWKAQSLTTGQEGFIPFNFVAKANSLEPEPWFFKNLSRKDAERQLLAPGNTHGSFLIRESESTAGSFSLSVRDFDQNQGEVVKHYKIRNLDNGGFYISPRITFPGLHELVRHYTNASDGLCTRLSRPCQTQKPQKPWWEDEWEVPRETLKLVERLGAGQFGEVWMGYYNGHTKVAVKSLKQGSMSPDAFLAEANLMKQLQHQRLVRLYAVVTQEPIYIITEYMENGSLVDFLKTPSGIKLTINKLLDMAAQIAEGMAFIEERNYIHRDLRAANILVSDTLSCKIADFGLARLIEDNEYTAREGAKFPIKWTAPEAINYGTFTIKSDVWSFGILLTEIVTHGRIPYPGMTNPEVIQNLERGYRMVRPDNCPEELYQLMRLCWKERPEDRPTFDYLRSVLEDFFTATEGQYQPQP
Experimental: as §1, §2, §3, §4

CDK9-Cyclin T1 = CDK9-Cyclin T1 (Homo sapiens, UniProt P50750); experiment: Premier Screen kinase panel (MRC PPU); format: biochemical; details: CDK9-Cyclin T1 (Entrez CDK9 + CCNT1), read-out: Residual activity (%)
CDK9-Cyclin T1, sequence (P50750 whole entry): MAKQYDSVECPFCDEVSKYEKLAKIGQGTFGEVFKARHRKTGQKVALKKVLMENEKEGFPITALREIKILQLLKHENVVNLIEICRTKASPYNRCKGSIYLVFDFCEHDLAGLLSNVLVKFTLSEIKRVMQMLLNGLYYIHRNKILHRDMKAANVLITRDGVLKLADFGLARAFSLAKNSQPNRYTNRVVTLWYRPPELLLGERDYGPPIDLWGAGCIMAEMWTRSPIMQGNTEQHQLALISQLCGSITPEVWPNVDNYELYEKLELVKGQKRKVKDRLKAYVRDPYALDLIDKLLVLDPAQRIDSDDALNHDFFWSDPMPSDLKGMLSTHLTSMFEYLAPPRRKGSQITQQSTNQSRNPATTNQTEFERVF
CDK9-Cyclin T1, sequence (O60563 whole entry partner): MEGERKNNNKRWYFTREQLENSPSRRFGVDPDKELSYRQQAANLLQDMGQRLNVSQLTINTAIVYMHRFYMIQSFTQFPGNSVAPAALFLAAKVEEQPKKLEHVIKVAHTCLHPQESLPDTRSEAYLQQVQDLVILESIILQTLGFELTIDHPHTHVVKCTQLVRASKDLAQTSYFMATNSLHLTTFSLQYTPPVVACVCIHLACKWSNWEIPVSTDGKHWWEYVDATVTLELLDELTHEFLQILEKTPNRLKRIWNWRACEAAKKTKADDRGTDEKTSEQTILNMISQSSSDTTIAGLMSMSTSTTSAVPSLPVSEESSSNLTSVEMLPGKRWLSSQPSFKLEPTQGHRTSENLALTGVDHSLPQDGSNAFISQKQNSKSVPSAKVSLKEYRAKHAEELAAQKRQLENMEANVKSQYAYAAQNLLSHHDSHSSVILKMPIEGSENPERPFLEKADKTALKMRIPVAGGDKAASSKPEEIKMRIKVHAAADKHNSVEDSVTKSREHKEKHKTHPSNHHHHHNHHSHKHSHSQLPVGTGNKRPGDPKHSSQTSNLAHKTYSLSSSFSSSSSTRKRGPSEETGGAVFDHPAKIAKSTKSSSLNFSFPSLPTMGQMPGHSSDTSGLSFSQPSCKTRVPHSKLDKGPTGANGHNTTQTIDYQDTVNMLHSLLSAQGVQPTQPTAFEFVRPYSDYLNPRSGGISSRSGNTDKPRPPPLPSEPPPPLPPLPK
Experimental: as §1, §2, §3, §4

Aurora A = Aurora A (Homo sapiens, UniProt O14965); experiment: Premier Screen kinase panel (MRC PPU); format: biochemical; details: Aurora A (Entrez AURKA), read-out: Residual activity (%)
Aurora A, sequence (O14965 whole entry): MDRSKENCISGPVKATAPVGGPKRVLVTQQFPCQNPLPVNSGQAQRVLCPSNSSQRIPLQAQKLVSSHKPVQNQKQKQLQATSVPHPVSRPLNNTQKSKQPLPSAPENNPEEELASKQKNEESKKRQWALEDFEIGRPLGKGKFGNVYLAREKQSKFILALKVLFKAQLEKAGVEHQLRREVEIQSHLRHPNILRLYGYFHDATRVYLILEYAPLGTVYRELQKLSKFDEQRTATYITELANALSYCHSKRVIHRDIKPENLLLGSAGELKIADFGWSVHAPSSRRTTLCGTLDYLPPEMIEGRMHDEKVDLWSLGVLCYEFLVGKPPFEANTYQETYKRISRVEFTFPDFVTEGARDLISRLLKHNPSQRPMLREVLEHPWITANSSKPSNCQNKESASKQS
Experimental: as §1, §2, §3, §4

AMPK (hum) = AMPK (hum) (Homo sapiens, UniProt Q13131); experiment: Premier Screen kinase panel (MRC PPU); format: biochemical; details: AMPK (hum) (Entrez PRKAA1 + PRKAB2 + PRKAG1), read-out: Residual activity (%)
Experimental: as §1, §2, §3, §4

MKK2 = MKK2 (Homo sapiens, UniProt P36507); experiment: Premier Screen kinase panel (MRC PPU); format: biochemical; details: MKK2 (Entrez MAP2K2), read-out: Residual activity (%)
MKK2, sequence (P36507 whole entry): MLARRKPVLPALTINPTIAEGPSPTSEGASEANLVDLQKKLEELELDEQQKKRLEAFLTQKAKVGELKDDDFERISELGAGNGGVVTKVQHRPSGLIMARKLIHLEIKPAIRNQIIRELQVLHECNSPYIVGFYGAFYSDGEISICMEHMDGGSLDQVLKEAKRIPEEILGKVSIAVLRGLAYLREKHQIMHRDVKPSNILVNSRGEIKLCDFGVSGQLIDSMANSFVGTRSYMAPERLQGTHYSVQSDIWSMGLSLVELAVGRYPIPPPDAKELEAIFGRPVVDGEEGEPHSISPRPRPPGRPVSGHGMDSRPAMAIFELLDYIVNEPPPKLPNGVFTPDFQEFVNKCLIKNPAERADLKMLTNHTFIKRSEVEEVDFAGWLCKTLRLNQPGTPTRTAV
Experimental: as §1, §2, §3, §4

MNK2 = MNK2 (Homo sapiens, UniProt Q9HBH9); experiment: Premier Screen kinase panel (MRC PPU); format: biochemical; details: MNK2 (Entrez MKNK2), read-out: Residual activity (%)
MNK2, sequence (Q9HBH9 whole entry): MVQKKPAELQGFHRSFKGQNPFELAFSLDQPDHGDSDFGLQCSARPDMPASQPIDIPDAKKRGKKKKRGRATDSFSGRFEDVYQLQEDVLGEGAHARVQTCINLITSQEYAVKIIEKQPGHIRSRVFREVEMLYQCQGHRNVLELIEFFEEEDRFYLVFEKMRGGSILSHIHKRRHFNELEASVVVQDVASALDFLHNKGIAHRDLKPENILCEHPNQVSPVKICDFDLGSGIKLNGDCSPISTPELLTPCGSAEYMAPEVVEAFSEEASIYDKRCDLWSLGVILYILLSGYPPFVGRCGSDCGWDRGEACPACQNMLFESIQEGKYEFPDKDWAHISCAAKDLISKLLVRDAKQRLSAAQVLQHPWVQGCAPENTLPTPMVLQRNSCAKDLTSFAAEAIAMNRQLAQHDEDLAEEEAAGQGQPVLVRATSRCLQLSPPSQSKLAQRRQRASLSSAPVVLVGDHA
Experimental: as §1, §2, §3, §4

PI5P4Kβ = target: T1, PI5P4Kβ (Homo sapiens, UniProt P78356); experiment: ADP-Glo kinase assay PI5P4Kβ; format: biochemical; details: single concentration of 100 μM
T1 sequence (P78356 1-416): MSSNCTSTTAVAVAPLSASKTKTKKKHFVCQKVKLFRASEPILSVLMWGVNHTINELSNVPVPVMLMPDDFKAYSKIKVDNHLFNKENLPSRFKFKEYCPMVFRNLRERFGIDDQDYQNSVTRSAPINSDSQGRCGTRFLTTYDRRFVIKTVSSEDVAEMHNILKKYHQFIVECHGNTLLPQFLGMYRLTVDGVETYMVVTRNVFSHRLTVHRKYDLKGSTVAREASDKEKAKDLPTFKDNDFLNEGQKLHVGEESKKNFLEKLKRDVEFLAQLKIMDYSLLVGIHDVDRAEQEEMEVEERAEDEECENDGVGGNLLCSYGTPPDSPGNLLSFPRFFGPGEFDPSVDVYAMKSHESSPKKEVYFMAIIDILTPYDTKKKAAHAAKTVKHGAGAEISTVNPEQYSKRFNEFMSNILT
Experimental: Assays to determine kinase activity of PI5P4Ks in the presence of inhibitors using an ADP-Glo assay (Promega) were performed as described previously.[28] […] Cultures were induced with 0.4 mM IPTG overnight and probe-sonicated in the presence of protease inhibitors. […] The cleaved protein was further purified by size-exclusion chromatography (ÄKTA Pure, Cytiva). […] The protein purity was confirmed by sodium dodecyl sulfate–polyacrylamide gel electrophoresis, and the concentration was determined by colorimetric assay (Bio-Rad).
Statistical analysis was performed using nonparametric testing in Prism 8 (GraphPad). Activity pIC50 values and in vivo binding pEC50 values were estimated using a 4-parameter fit (Dotmatics).

COc1ccc(Nc2ncnc3c2ccn3-c2ccc(C)c(C)c2)cc1Cl [compound 36]
half-life at 1 µM [1]: 11 min
inhibition of targets in the protein kinase screen (140 protein kinases): ≤ 50%
Papp A→B at 60 min, 10 µM (MDR1 (P-gp)): 0.2 ×10⁻⁶ cm/s
remaining activity at 1 µM (PIP5K2A (PI5P4Kα)): 15.6%
remaining activity at 1 µM (ABL): 89%
remaining activity at 1 µM (MPSK1): 96%
remaining activity at 1 µM (TAO1): 111%
remaining activity at 1 µM (LKB1): 101%
remaining activity at 1 µM (PLK1): 90%
remaining activity at 1 µM (Lck): 95%
remaining activity at 1 µM (CDK9-Cyclin T1): 94%
remaining activity at 1 µM (Aurora A): 81%
remaining activity at 1 µM (AMPK (hum)): 94%
remaining activity at 1 µM (MKK2): 82%
remaining activity at 1 µM (MNK2): 90%
inhibition at 100 µM (PI5P4Kβ): 4%
